The values below come from patent publication US8293909B2, “Compounds for the treatment of hepatitis C” (Bristol-Myers Squibb Company, priority 2008, dated 2012).

What is called EC50 is the concentration that produces a half-maximal response. One may read the IC50 as the concentration at which inhibition is half-maximal. A higher IC50 goes with weaker potency in that assay.

In one series the test system is HCV. The conditions noted are these: cited from earlier work.
Series [1] relates to HCV replicon in HUH-7 cells. Description: HCV replicon luciferase reporter assay, 384 well plate protocol. Type of series: cell-based. The conditions noted are these: Hepatitis C virus, Table 2. The procedure: (§1) The HCV replicon luciferase assay was developed to monitor the inhibitory effects of compounds described in the disclosure on HCV viral replication. Utilization of a replicon luciferase reporter assay was first described by Krieger et al (Krieger N, Lohmann V, and Bartenschlager R, J. Virol. 75(10):4614-4624 (2001)). HUH-7 cells, constitutively expressing the HCV replicon, were grown in Dulbecco's Modified Eagle Media (DMEM) (Gibco-BRL) containing 10% Fetal calf serum (FCS) (Sigma) and 1 mg/ml G418 (Gibco-BRL). Compounds were serially diluted 3 folds in DMSO for a twenty-point titration and subsequently transferred to sterile 384-well tissue-culture treated plates (Corning cat #3571). The plates were then seeded with 50 μl of cells at a density of 3.0×10^3 cells/well in DMEM containing 4% FCS (final DMSO concentration at 0.5%). After 3 days incubation at 37° C., cells were analyzed for Renilla Luciferase activity using the EnduRen as substrate (Promega cat #E6485). The EnduRen substrate was diluted in DMEM and then added to the plates to a final concentration of 7.5 μM. The plates were incubated for 2 hrs at 37° C. and then read immediately for 30 seconds with Viewlux Imager (PerkinElmer) using a luminescence program. To assess cytotoxicity of compounds, CC50 values were generated by multiplexing the EnduRen-containing plates with Cell Titer-Blue (Promega, cat #G8082). 3 μl of Cell-Titer Blue was added to each well and incubated for 8 hrs at 37° C. The fluorescence signal from each well was read, with an excitation wavelength at 525/10 nm and an emission wavelength of 598/10 nm, using the Viewlux Imager.
(In general: In antiviral work, replicon cells carry a viral genome segment that copies itself.)

For series [2], the target named is T1, HCV NS5B RdRp genotype 1b (Hepatitis C virus genotype 1b, UniProt Q9WMX2).
T1 construct: The protein was expressed with an 18 amino acid C-terminal truncation to enhance the solubility; made in house; host or cells: E. coli BL21(DE3), pET21a vector
The series is described as follows: HCV NS5B RdRp enzyme assay (standard / modified). Type of series: biochemical. As to conditions: HCV NS5B genotype 1b. An outline of the steps: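 Genotype 1b NS5B with an 18-aa C-terminal truncation, expressed in E. coli, was tested by SPA incorporation of 3H-UTP (0.29 μM) on polyA/biotin-oligo-dT12. Standard assay: 28 nM enzyme, 6 nM template, 180 nM primer, 60 min at 30 °C, pH 7.5, 2% DMSO. Modified assay: 14 nM enzyme added to compound first, 0.2 nM template, 20 nM bead-precaptured primer, 4 h at 30 °C. IC50 used seven inhibitor concentrations.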

Another series deals with 1 a replicon. Description: HCV replicon luciferase reporter assay, 384 plate protocol, 1a replicon. The conditions noted are these: Hepatitis C virus; Table 1; *384 plate protocol and a 1 a replicon. Type of series: cell-based. The procedure: as §1, with “To assess cytotoxicity of compounds, CC50 values were generated by multiplexing the EnduRen-containing plates with Cell Titer-Blue (Promega, cat #G8082). 3 μl of Cell-Titer Blue was added to each well and incubated for 8 hrs at 37° C.” left out

Another series relates to HCV replicon cells. Description: HCV replicon assay (FRET or luciferase readout). In kind it is cell-based. The conditions noted are these: Hepatitis C virus, Table 1. An outline of the steps: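 Replicon cells (with or without Renilla luciferase reporter) incubated with titrated compounds at 37 °C; Alamar blue read for cytotoxicity first. NS3 protease activity read kinetically with 20 μM EDANS/DABCYL FRET peptide in lysis reagent plus 150 mM NaCl (ex 340/em 490), or by Dual-Glo luciferase. EC50 = 50% signal reduction after protease-inhibitor background subtraction.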

T1 sequence (Q9WMX2 2420-2992): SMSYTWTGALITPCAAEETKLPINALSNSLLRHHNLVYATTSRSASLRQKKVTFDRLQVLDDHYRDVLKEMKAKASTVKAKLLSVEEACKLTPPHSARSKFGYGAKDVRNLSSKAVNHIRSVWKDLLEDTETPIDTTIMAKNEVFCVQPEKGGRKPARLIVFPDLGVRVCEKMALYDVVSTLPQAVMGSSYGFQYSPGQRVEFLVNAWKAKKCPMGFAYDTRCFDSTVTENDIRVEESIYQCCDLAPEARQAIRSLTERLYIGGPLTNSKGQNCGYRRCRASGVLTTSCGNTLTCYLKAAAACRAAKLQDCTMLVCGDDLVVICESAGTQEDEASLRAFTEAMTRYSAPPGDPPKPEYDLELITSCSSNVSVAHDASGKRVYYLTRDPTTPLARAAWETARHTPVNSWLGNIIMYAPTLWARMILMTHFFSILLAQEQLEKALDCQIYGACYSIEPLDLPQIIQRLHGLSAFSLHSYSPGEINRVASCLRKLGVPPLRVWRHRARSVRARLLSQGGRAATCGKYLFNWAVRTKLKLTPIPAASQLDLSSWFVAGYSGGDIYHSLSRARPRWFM

Turning to `CNC(=O)c1c(-c2ccc(F)cc2)oc2cc(N(CCO)S(C)(=O)=O)c(C3CC3)cc12` [HCV-796], the hepatic toxicity result in the series with HCV (extended dosing of the combination regimens with interferon and ribavirin) is given as “hepatic toxicity observed during extended dosing of the combination regimens”. Moreover, in the series on HCV (patients), the “HCV RNA levels in patients” value is “showed an ability to reduce HCV RNA levels in patients”. `CNC(=O)c1c(-c2ccc(F)cc2)oc2ncc(-c3cc(C(=O)NC4(c5ccccn5)CC4)ccc3Cl)cc12` [drawing 187] yielded an EC50 in series [1] of 1.5 nM. With alpha-interferon and ribavirin, the sustained efficacy in the series with HCV (combination therapy) is given as 40 % of patients. As for pegylated alpha-interferon, the “clinical efficacy compared with unmodified alpha-interferon” value in the series with HCV (monotherapy) is reported as “superior to unmodified alpha-interferon as monotherapy”. As to `CNC(=O)c1c(-c2ccc(F)cc2)oc2ncc(-c3cc(C(=O)NC4(c5ccccn5)CC4)ccc3C)cc12` [drawing 186], in series [1], it took 2.04 nM to reach a half-maximal effect (EC50). The compound also yielded an IC50 in series [2] (Table 2) of 4.65 nM. In the series with 1 a replicon, `CNC(=O)c1c(-c2ccc(F)cc2)nc2ccc(-c3cc(C(=O)NC4(c5ccccn5)CC4)c(OC)cc3Cl)cn12` [drawing 164] displayed a concentration for a half-maximal effect (EC50) of 2 to 250 nM. `CNC(=O)c1c(-c2ccc(F)cc2)nn2ccc(-c3cc(C(=O)NC4(c5ccccc5)CC4)ccc3C)c(F)c12` [drawing 185] yielded an EC50 in series [1] of 0.85 nM. As to `CNC(=O)c1c(-c2ccc(F)cc2)nc2ccc(-c3ccc(-c4ccccc4Cl)c(C(=O)NCC(C)C)c3)cn12` [drawing 163], the EC50 with 1 a replicon was 250 to 1000 nM. Consider `CNC(=O)c1c(-c2ccc(F)cc2)nn2ccc(-c3cc(C(=O)NC4(c5ccccn5)CC4)ccc3C)c(F)c12` [drawing 130], for which the EC50 in the series on HCV replicon cells was in the range of 2 to 250 nM. The compound further displayed an IC50 in series [2] (Table 1) of 2 to 250 nM. For `CCOc1ccccc1-c1ccc2c(C(=O)NC)c(-c3ccc(F)cc3)nn2c1`, the EC50 with HCV replicon cells is over 10000 nM. In addition, the IC50 in series [2] (Table 1) is over 10000 nM. Compound `CNC(=O)c1c(-c2ccc(F)cc2)nn2ccc(-c3cc(C(=O)NC4(C5CC5)CC4)c(OC)cc3C)c(F)c12` had a 50% effective concentration (EC50) in the series on HCV replicon cells of 2 to 250 nM. The same compound yielded a half-maximal inhibitory concentration (IC50) in series [2] (Table 1) of 2 to 250 nM.

Take `CNC(=O)c1c(-c2ccc(F)cc2)nc2ccc(-c3cccc(C(=O)NC4(c5ccccc5)CC4)c3)cn12`: the concentration for a half-maximal effect (EC50) with HCV replicon cells lay in the range of 2 to 250 nM. Moreover, the IC50 in series [2] (Table 1) is 2 to 250 nM.
